Measured values published in article PMC3840712, “Enzymatic properties of Thermoanaerobacterium thermosaccharolyticum β-glucosidase fused to Clostridium cellulovorans cellulose binding domain and its application in hydrolysis of microcrystalline cellulose” (BMC Biotechnology, 2013).
Blank lines part the entries; values can stand above or below the molecule they belong to.

How the values were obtained:
BGL [1] = target: T1, BGL (Thermoanaerobacterium thermosaccharolyticum, UniProt D9TR57); test: initial rates, cellobiose hydrolysis; type: biochemical; conditions: 50 mM citrate pH 6.0, 65°C
T1 construct: gene Tthe_1813
T1 sequence (D9TR57 1-444): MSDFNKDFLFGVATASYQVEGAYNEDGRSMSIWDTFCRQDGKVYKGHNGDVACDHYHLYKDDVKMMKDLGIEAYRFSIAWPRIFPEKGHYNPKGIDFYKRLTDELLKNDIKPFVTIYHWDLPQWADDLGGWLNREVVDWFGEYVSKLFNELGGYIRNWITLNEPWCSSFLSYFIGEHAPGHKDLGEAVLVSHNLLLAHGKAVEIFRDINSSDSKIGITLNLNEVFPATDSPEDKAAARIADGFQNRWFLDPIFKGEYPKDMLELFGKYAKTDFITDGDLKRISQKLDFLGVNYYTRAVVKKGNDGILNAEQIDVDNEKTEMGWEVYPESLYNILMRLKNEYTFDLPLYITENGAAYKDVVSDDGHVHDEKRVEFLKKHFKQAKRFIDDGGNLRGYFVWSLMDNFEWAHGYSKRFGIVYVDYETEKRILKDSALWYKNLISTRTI

BGL-CBD [2] = test system: T2, BGL-CBD; test: initial rates, cellobiose hydrolysis; type: biochemical, Thermoanaerobacterium thermosaccharolyticum; conditions: 50 mM citrate pH 6.0, 65°C
T2 construct: one polypeptide: BGL - PPP linker - C. cellulovorans CBD, pET-20b (NdeI/BamHI/XhoI; pET-BGL-Linker-CBD), Ni-NTA purified, E. coli JM109(DE3), about 69 kDa
Text: initial rates, cellobiose hydrolysis on BGL-CBD

BGL [3] = target: T1, BGL; test: pNP release at […] nm, […] inhibition; type: biochemical; conditions: pNPG as substrate, 50 mM citrate pH 6.0, 65°C; K i defined as glucose giving 50% inhibition
BGL [4] = target: T1, BGL; test: initial rates, pNP release at […] nm; type: biochemical; conditions: 50 mM citrate pH 6.0, 65°C
BGL-CBD [5] = test system: T2, BGL-CBD; test: initial rates, pNP release at […] nm; type: biochemical, Thermoanaerobacterium thermosaccharolyticum; conditions: 50 mM citrate pH 6.0, 65°C

Km (BGL [1]): 7900 µM
Km (BGL-CBD [2]): 2620 µM
SMILES: OC[C@H]1O[C@@H](O[C@H]2[C@H](O)[C@@H](O)C(O)O[C@@H]2CO)[C@H](O)[C@@H](O)[C@@H]1O (some centres unmarked) [cellobiose]

SMILES: OC[C@H]1OC(O)[C@H](O)[C@@H](O)[C@@H]1O (some centres unmarked) [glucose]
K i (BGL [3]): The BGL-CBD yielded approximately two times higher K i values for glucose than the BGL

Km (BGL [4]): 620 µM
Km (BGL-CBD [5]): 250 µM
SMILES: O=[N+]([O-])c1ccc(O[C@@H]2O[C@H](CO)[C@@H](O)[C@H](O)[C@H]2O)cc1 [p-nitrophenyl-β-D-glucopyranoside]
